Results from paper PMC10315211 (Molecular microbiology, 2023).

Target: Rv0805 (N-His-Rv0805) (Mycobacterium tuberculosis, UniProt P9WP65)
Sequence (P9WP65 whole entry): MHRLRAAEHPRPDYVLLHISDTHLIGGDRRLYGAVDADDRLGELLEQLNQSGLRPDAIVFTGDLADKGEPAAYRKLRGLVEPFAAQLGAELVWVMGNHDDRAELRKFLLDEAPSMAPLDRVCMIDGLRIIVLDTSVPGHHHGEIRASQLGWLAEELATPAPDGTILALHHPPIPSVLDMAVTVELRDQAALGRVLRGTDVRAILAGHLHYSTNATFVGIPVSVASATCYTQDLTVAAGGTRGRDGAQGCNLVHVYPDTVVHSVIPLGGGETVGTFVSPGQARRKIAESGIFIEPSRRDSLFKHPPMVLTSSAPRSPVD

## C[N+](C)(C)CCOP(=O)([O-])OC[C@H](O)CO [glycerophosphocholine]
  choline oxidase / HRP coupled Amplex Red fluorometric assay: both Rv0805 and CpdAEc produced choline and Gly3P from glycerophosphocholine (GPC)
